Tests used:
[1] = test system: TLR7; test: Cytokine induction in BMDM from wild type and TLR7 deficient mice; type: cell-based, mouse; settings: BMDM from TLR7 deficient mice
Method: (§1) In vitro measurements of cytokine induction were performed using the mouse leukemic monocyte macrophage cell line, RAW264.7. […] BMDM were prepared from C57BL/6 and TLR7 deficient mice as described in Wu, C. C et al., (2007) “Immunotherapeutic activity of a conjugate of a Toll-like receptor 7 ligand”, Proc Natl Acad Sci USA 104, 3990-5.
(§2) In general, RAW264.7 cells or BMDM were incubated with various concentrations of conjugates for 18 hours at 37° C., 5% CO2 and culture supernatants were collected. The levels of cytokines (IL-6, IL-12 or TNF-α in the supernatants were determined by ELISA (BD Biosciences Pharmingen, La Jolla, Calif.) (Cho, H. J et al., “Immunostimulatory DNA-based vaccines induce cytotoxic lymphocyte activity by a T-helper cell-independent mechanism” [see comments], Nat Biotechnol 18, 509-14 (2000)), and the results presented in FIG. 2A-D. Data are mean±SEM of triplicates and are representative of three independent experiments. Minimum detection levels of these cytokines were 15 pg/mL.

[2] = target: T1, TLR7 (Mus musculus, UniProt P58681); test: as above; type: cell-based; parameters: endogenous in cells; host or cells: primary BMDM from C57BL/6 mice; settings: wild type BMDM
T1 sequence (P58681 27-1050): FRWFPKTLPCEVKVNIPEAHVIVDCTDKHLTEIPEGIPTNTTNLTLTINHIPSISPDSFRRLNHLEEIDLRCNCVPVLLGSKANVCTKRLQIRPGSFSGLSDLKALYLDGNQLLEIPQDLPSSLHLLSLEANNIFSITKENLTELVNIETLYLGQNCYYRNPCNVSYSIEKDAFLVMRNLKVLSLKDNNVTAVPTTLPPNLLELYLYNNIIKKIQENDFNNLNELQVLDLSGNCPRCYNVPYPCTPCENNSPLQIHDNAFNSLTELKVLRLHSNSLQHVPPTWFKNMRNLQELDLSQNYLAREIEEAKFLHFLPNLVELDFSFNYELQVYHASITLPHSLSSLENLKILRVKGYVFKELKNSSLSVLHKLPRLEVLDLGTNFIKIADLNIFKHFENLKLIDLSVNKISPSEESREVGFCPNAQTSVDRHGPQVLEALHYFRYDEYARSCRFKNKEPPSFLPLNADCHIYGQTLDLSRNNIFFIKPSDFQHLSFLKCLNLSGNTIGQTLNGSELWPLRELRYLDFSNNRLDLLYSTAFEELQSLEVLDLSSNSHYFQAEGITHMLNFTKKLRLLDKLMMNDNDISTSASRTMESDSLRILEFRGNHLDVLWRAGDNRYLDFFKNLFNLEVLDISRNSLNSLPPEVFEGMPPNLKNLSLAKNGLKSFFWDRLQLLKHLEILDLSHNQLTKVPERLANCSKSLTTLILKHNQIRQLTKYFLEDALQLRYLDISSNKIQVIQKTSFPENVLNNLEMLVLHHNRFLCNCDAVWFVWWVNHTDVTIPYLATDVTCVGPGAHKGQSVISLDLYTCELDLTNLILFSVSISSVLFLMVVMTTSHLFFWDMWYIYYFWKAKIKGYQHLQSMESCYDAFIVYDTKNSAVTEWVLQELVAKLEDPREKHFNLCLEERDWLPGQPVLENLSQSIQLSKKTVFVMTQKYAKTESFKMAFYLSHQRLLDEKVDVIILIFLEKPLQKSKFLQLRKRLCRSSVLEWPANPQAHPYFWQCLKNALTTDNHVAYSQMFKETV
Method: as §1, §2

| agonist activity (IL-12, IL-6) [2] | Compound | IL-12 and IL-6 induction [1] |
| --- | --- | --- |
| active | CCCCCCCC/C=C\CCCCCCCC(=O)OCC(COP(=O)(O)OCCNC(=O)c1ccc(Cn2c(=O)[nH]c3c(N)nc(OCCOC)nc32)cc1)OC(=O)CCCCCCC/C=C\CCCCCCCC (stereo not drawn) [Compound 6, 2-(4-((6-amino-2-(2-methoxyethoxy)-8-oxo-7H-purin-9(8H)-yl)methyl)benzamido)ethyl 2,3-bis(oleoyloxy)propyl phosphate] | little or no IL-12 and IL-6 |
| active | CCCCCCCC/C=C\CCCCCCCC(=O)OCC(COP(=O)(O)OCCNC(=O)CCc1cn(CCOCCOCCOCCOCCOCCOCCOCCOCCOCCOCCNC(=O)c2ccc(Cn3c(O)nc4c(N)nc(OCCOC)nc43)cc2)nn1)OC(=O)CCCCCCC/C=C\CCCCCCCC (stereo not drawn) [Compound 9, 2-(3-(1-(1-(4-((6-amino-8-hydroxy-2-(2-methoxyethoxy)-9H-purin-9-yl)methyl)phenyl)-1-oxo-5,8,11,14,17,20,23,26,29,32-decaoxa-2-azatetratriacontan-34-yl)-1H-1,2,3-triazole-4-yl)propanamido)ethyl 2,3-bis(oleoyloxy)propyl phosphate] | little or no IL-12 and IL-6 |
| active | COCCOc1nc(N)c2nc(O)n(Cc3ccc(C(=O)NCCOCCOCCOCCOCCOCCOCCOCCOCCOCCOCCn4cc(CCC(=O)O)nn4)cc3)c2n1 [Compound 8, 3-(1-(1-(4-((6-amino-8-hydroxy-2-(2-methoxyethoxy)-9H-purin-9-yl)methyl)phenyl)-1-oxo-5,8,11,14,17,20,23,26,29,32-decaoxa-2-azatetratriacontan-34-yl)-1H-1,2,3-triazol-4-yl)propanoic acid] | little or no IL-12 and IL-6 |

Reference: patent publication US8729088B2, “Toll-like receptor modulators and treatment of diseases” (The Regents of the University of California, priority 2009, dated 2014)
